The results in this text go back to ChEMBL document CHEMBL1201862, “PubChem BioAssay data set” (2004).

Activity calls are given as the source filed them.

The subject of one series is HeLa. The series can be described thus: HeLa cell cytotoxicity, dose response, cytotoxicity control for MITF activator project, CellTiter-Glo luminescence, cherry-pick samples (AID 540259). The class given is functional, cell-based. The note with it: Homo sapiens. (In general: In ATP-based viability assays light output follows the ATP content of the culture.)
In another series the target is T1, Hexokinase-1 (Homo sapiens, UniProt P19367).
T1 sequence (P19367 whole entry): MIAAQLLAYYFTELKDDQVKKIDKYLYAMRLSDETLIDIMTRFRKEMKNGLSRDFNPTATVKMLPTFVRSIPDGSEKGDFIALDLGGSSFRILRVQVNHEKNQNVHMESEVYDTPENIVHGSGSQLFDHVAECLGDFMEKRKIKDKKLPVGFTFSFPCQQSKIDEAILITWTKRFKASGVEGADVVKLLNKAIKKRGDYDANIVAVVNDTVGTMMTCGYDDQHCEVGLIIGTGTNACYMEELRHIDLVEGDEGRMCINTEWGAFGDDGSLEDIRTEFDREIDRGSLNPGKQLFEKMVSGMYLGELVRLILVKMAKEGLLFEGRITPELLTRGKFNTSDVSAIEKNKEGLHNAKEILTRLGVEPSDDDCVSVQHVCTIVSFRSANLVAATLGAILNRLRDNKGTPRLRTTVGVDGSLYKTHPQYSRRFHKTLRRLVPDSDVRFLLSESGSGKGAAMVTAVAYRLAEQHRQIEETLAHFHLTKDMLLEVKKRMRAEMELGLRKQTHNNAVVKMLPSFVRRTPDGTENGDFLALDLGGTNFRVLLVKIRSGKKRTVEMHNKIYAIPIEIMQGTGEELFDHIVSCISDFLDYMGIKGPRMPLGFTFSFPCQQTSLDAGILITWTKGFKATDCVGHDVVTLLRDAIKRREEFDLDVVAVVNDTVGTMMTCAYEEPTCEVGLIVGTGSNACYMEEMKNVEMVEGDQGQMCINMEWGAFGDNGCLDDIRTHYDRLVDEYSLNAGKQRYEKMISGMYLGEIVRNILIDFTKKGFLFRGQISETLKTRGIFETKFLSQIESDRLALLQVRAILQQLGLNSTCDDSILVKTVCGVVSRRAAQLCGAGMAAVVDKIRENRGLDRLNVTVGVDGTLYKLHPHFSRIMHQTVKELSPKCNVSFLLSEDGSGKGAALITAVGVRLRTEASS
Put plainly: HK1 enzyme inhibition by HKDC1 hits, SAR follow-up, selectivity assay for HKDC1 inhibitor project, biochemical, set 2, resazurin fluorescence coupled readout (AID 588356). The class given is functional.

For another series, the target named is T2, Hexokinase HKDC1 (Homo sapiens, UniProt Q2TB90).
T2 sequence (Q2TB90 whole entry): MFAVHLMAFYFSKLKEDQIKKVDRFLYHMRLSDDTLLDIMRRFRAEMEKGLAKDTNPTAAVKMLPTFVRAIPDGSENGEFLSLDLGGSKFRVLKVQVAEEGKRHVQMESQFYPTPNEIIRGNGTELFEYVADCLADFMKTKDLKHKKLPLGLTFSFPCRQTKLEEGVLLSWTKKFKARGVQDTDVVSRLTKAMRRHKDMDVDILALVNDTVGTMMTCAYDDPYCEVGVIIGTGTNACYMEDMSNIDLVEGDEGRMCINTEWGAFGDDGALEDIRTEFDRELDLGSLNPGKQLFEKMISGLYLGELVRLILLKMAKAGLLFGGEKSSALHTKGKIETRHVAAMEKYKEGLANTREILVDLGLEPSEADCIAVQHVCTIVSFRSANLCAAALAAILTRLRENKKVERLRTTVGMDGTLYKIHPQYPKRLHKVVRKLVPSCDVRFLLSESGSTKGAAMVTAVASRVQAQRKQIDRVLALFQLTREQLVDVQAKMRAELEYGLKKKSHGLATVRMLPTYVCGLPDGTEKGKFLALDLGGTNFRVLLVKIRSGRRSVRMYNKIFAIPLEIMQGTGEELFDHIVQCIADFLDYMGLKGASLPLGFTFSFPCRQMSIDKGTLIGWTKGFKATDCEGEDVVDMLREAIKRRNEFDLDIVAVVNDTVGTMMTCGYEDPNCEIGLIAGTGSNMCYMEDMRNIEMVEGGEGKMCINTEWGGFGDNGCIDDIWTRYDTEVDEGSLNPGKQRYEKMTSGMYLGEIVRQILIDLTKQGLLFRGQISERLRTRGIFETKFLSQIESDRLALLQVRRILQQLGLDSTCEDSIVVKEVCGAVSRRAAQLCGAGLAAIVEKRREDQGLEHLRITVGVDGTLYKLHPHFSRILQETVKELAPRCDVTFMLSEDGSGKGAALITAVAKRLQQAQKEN
Put plainly: HKDC1 hexokinase inhibitors, SAR follow-up, biochemical, set 2 (AID 588355). The class given is functional.

Series [1] deals with T3, Replicative DNA helicase DnaB (Mycobacterium tuberculosis, UniProt P9WMR3).
T3 sequence (P9WMR3 whole entry): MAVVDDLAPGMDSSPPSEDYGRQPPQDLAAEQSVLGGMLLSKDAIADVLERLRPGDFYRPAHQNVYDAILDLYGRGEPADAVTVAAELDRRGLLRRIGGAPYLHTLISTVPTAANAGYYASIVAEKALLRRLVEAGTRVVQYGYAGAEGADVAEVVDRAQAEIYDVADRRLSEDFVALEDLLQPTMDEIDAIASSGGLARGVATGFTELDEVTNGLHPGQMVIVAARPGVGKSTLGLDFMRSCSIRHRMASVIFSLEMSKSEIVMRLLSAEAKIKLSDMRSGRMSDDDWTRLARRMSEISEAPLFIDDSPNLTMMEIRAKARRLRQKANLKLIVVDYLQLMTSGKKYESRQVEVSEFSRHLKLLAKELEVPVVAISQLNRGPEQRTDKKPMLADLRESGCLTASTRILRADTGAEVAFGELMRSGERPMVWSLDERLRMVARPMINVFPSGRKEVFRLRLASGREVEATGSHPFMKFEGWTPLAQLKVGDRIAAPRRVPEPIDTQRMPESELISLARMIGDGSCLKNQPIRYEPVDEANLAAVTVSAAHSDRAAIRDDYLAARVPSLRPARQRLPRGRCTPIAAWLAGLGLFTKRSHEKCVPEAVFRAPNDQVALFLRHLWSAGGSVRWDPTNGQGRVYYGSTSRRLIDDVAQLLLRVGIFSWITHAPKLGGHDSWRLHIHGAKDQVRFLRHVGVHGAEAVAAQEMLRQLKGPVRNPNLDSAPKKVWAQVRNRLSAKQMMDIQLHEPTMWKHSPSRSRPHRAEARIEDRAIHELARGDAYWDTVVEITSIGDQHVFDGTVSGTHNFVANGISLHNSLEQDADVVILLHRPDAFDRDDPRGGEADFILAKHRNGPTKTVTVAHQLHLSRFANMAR
The series can be described thus: DnaB intein splicing inhibitors, dose response, biochemical, cell-free fluorescence (AID 449749). Type of series: functional.

A further series has as its target Cytochrome P450 2D6 (Homo sapiens, UniProt P10635).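 Also: CYP2D6 member of a cytochrome P450 panel assay.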
The target of the next series is T4, Protein RecA (Mycobacterium tuberculosis, UniProt P9WHJ3).
T4 sequence (P9WHJ3 whole entry): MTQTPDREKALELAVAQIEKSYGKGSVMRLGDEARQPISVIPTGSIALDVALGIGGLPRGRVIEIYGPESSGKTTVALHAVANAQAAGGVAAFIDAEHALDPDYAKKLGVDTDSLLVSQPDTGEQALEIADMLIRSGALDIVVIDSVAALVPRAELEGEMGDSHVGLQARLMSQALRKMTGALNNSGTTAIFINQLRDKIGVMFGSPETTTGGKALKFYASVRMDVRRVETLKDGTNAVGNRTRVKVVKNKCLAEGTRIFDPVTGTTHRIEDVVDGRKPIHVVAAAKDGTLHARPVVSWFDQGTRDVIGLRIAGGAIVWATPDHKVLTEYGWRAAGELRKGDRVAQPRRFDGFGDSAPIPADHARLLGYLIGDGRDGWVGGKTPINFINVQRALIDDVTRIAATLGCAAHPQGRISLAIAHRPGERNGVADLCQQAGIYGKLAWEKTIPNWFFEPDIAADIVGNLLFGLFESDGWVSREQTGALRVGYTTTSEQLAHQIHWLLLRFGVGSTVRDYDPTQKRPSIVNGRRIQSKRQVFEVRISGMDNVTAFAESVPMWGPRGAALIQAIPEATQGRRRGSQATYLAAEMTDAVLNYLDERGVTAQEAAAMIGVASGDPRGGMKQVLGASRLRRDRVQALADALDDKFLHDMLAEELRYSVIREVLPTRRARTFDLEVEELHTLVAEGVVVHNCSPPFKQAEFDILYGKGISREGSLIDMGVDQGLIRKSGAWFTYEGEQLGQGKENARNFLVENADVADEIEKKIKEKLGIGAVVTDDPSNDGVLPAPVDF
The series can be described thus: Fluorescence Cell-Free Homogeneous Dose Retest to Identify Inhibitors of RecA-Intein Splicing Activity. [Related pubchem assays (depositor defined):AID2097, AID2223, AID489010, AID492950]. Type of series: functional.

Cytochrome P450 2D6, sequence (P10635 whole entry): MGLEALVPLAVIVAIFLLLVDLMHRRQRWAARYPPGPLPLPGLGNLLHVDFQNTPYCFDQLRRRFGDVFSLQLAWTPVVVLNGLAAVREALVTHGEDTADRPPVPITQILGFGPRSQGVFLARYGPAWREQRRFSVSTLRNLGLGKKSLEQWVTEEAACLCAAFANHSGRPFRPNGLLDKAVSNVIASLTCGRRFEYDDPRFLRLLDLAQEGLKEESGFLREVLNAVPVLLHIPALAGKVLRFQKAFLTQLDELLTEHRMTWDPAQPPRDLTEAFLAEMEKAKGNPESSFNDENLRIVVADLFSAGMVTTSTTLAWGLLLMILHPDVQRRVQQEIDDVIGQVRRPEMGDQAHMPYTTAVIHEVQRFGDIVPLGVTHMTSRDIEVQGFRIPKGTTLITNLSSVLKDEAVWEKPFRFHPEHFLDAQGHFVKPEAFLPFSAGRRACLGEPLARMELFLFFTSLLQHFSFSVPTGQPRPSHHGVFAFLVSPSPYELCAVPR

As for `Nc1nc(-c2cc(-c3ccccc3)no2)cs1`, the half-maximal activity concentration (AC50) (commonly the concentration giving half of the maximal activity seen) in the series with HeLa is 144 µM (active).

Turning to `COc1cc2c(cc1OC)-c1cc(NCc3ccccc3F)nc(=O)n1CC2`, the IC50 at Hexokinase-1 and on Hexokinase HKDC1 was > 80 µM (inactive) in each case.

In the case of `CCO/C(O)=C1/C(C)=NC2(O)c3ccccc3C(=O)C12O` (stereo unspecified), the half-maximal activity concentration (AC50) in series [1] was 24 µM (active); on Cytochrome P450 2D6, “inconclusive”. Further, the EC50 – broadly, the midpoint of the concentration-response curve – at Protein RecA is 18.1 µM (active).
